Tests used:
Assay type in all cases: cell-based
E. coli DH5α = test: Antibacterial activity: MIC and growth curve against E. coli DH5α in 96-well plate; conditions: minimal inhibitory concentration against E. coli DH5α; 96-well plate, 5×10^5 CFU/mL, 37° C., judged after 8 h
Outline: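 Log-phase DH5α (OD600 about 0.5, 37° C, 185 rpm in LB) was pelleted, resuspended in fresh LB and seeded at 5×10^5 CFU/mL with recombinant protein at 50, 25 and 12.5 μg/mL (two-fold series), in triplicate. Plates were shaken at 175 rpm, 37° C, and OD600 was read every 30 min. MIC was the lowest concentration with no growth.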

E. coli BL21 = test: MIC against Gram-negative bacteria: E. coli BL21
Outline: (§1)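 First, colonies from LB agar were grown in LB at 37° C, 185 rpm, to McFarland turbidity 0.5, then centrifuged and resuspended in fresh LB. Next, wells received 5×10^5 CFU/mL bacteria plus two-fold serially diluted EGF domain protein (triplicate). Finally, plates were shaken at 37° C and the no-growth concentration taken as MIC.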

Pseudomonas aeruginosa = test: MIC against Gram-negative bacteria: Pseudomonas aeruginosa; conditions: for MIC: P. aeruginosa
Outline: as §1

Klebsiella pneumonia = test: MIC against Gram-negative bacteria: Klebsiella pneumonia; conditions: for MIC: K. pneumonia
Outline: as §1

Enterobacter cloacae = test: MIC against Gram-negative bacteria: Enterobacter cloacae; conditions: for MIC: E. cloacae
Outline: as §1

Aeromonas hydrophila = test: MIC against Gram-negative bacteria: Aeromonas hydrophila; conditions: for MIC: A. hydrophila
Outline: as §1

Citrobacter diversus = test: MIC against Gram-negative bacteria: Citrobacter diversus; conditions: for MIC: C. diversus
Outline: as §1

Moraxella catarrhalis = test: MIC against Gram-negative bacteria: Moraxella catarrhalis; conditions: for MIC: M. catarrhalis
Outline: as §1

Proteus mirabilis = test: MIC against Gram-negative bacteria: Proteus mirabilis; conditions: for MIC: P. mirabilis
Outline: as §1

Proteus vulgaris = test: MIC against Gram-negative bacteria: Proteus vulgaris; conditions: for MIC: P. vulgaris
Outline: as §1

Serratia marcescens = test: MIC against Gram-negative bacteria: Serratia marcescens; conditions: for MIC: S. marcescens
Outline: as §1

[1] = 10 h cultivation at 37° C., 5×10^5 CFU/mL, two-fold serial dilution
[2] = 96-well plate, 5×10^5 CFU/mL, 37° C., 10 h
[3] = E. coli BL21, 10 h cultivation at 37° C.

## PRT1050 (HFSRCPKQYKHYCIKGRCRFVVAEQTPSCVCDEGYIGARCE; listed as Homo sapiens)
E. coli DH5α
  MIC: 25 µg/mL
E. coli BL21; [1]
  MIC E. coli BL21: 12.5 µg/mL
Pseudomonas aeruginosa; [1]
  MIC P. aeruginosa: 25 µg/mL
Klebsiella pneumonia; [1]
  MIC K. pneumonia: 12.5 µg/mL
Enterobacter cloacae; [1]
  MIC E. cloacae: 25 µg/mL
Aeromonas hydrophila; [1]
  MIC A. hydrophila: 25 µg/mL
Citrobacter diversus; [1]
  MIC C. diversus: 12.5 µg/mL
Moraxella catarrhalis; [1]
  MIC M. catarrhalis: 12.5 µg/mL
Proteus mirabilis; [1]
  MIC P. mirabilis: 12.5 µg/mL
Proteus vulgaris; [1]
  MIC P. vulgaris: 50 µg/mL
Serratia marcescens; [1]
  MIC S. marcescens: 12.5 µg/mL

## PRT724 (DINECEQFGTCPQHCRNTKGSYECVCADGFTSMSDRPGKRCA; listed as Homo sapiens)
E. coli DH5α
  MIC: 12.5 µg/mL
E. coli BL21; [2]
  MIC E. coli BL21: 12.5 µg/mL
Pseudomonas aeruginosa; [2]
  MIC P. aeruginosa: 12.5 µg/mL
Klebsiella pneumonia; [2]
  MIC K. pneumonia: 12.5 µg/mL
Enterobacter cloacae; [2]
  MIC E. cloacae: 25 µg/mL
Aeromonas hydrophila; [2]
  MIC A. hydrophila: 12.5 µg/mL
Citrobacter diversus; [2]
  MIC C. diversus: 25 µg/mL
Moraxella catarrhalis; [2]
  MIC M. catarrhalis: 12.5 µg/mL
Proteus mirabilis; [2]
  MIC P. mirabilis: 25 µg/mL
Proteus vulgaris; [2]
  MIC P. vulgaris: 12.5 µg/mL
Serratia marcescens; [2]
  MIC S. marcescens: 25 µg/mL

## PRT141 (DPCENNPCLHGGTCNANGTMYGCSCDQGFAGENCE; listed as Homo sapiens)
E. coli DH5α
  MIC: 12.5 µg/mL
E. coli BL21; E. coli BL21, 96-well plate, 5×10^5 CFU/mL, 37° C., 10 h
  MIC (μg/mL) E. coli BL21: 25 µg/mL
Pseudomonas aeruginosa; Pseudomonas aeruginosa, 96-well plate, 5×10^5 CFU/mL, 37° C., 10 h
  MIC (μg/mL) P. aeruginosa: 12.5 µg/mL
Klebsiella pneumonia; Klebsiella pneumonia, 96-well plate, 5×10^5 CFU/mL, 37° C., 10 h
  MIC (μg/mL) K. pneumonia: 25 µg/mL
Enterobacter cloacae; Enterobacter cloacae, 96-well plate, 5×10^5 CFU/mL, 37° C., 10 h
  MIC (μg/mL) E. cloacae: 12.5 µg/mL
Aeromonas hydrophila; Aeromonas hydrophila, 96-well plate, 5×10^5 CFU/mL, 37° C., 10 h
  MIC (μg/mL) A. hydrophila: 25 µg/mL
Citrobacter diversus; Citrobacter diversus, 96-well plate, 5×10^5 CFU/mL, 37° C., 10 h
  MIC (μg/mL) C. diversus: 50 µg/mL
Moraxella catarrhalis; Moraxella catarrhalis, 96-well plate, 5×10^5 CFU/mL, 37° C., 10 h
  MIC (μg/mL) M. catarrhalis: 12.5 µg/mL
Proteus mirabilis; Proteus mirabilis, 96-well plate, 5×10^5 CFU/mL, 37° C., 10 h
  MIC (μg/mL) P. mirabilis: 50 µg/mL
Proteus vulgaris; Proteus vulgaris, 96-well plate, 5×10^5 CFU/mL, 37° C., 10 h
  MIC (μg/mL) P. vulgaris: 12.5 µg/mL
Serratia marcescens; Serratia marcescens, 96-well plate, 5×10^5 CFU/mL, 37° C., 10 h
  MIC (μg/mL) S. marcescens: 50 µg/mL

## PRT995 (ETNECASAPCLNHADCHDLLNGFQCICLPGFSGTRCE; listed as Homo sapiens)
E. coli DH5α
  MIC: 12.5 µg/mL
E. coli BL21; [3]
  MIC: 50 µg/mL
Pseudomonas aeruginosa; 10 h cultivation at 37° C.
  MIC: 12.5 µg/mL
Klebsiella pneumonia; 10 h cultivation at 37° C.
  MIC: 50 µg/mL
Enterobacter cloacae; 10 h cultivation at 37° C.
  MIC: 12.5 µg/mL
Aeromonas hydrophila; 10 h cultivation at 37° C.
  MIC: 50 µg/mL
Citrobacter diversus; 10 h cultivation at 37° C.
  MIC: 25 µg/mL
Moraxella catarrhalis; 10 h cultivation at 37° C.
  MIC: 12.5 µg/mL
Proteus mirabilis; 10 h cultivation at 37° C.
  MIC: 25 µg/mL
Proteus vulgaris; 10 h cultivation at 37° C.
  MIC: 50 µg/mL
Serratia marcescens; 10 h cultivation at 37° C.
  MIC: 12.5 µg/mL

## PRT1017 (NPDNCVSHQCQNGGTCQDGLDTYTCLCPETWTGWDCS; listed as Homo sapiens)
E. coli DH5α
  MIC: 50 µg/mL
E. coli BL21; [3]
  MIC: 12.5 µg/mL
Pseudomonas aeruginosa; 10 h cultivation at 37° C.
  MIC: 12.5 µg/mL
Klebsiella pneumonia; 10 h cultivation at 37° C.
  MIC: 12.5 µg/mL
Enterobacter cloacae; 10 h cultivation at 37° C.
  MIC: 12.5 µg/mL
Aeromonas hydrophila; 10 h cultivation at 37° C.
  MIC: 12.5 µg/mL
Citrobacter diversus; 10 h cultivation at 37° C.
  MIC: 12.5 µg/mL
Moraxella catarrhalis; 10 h cultivation at 37° C.
  MIC: 12.5 µg/mL
Proteus mirabilis; 10 h cultivation at 37° C.
  MIC: 50 µg/mL
Proteus vulgaris; 10 h cultivation at 37° C.
  MIC: 12.5 µg/mL
Serratia marcescens; 10 h cultivation at 37° C.
  MIC: 50 µg/mL

## PRT449 (FLCRCHQGYELHRDGFSCSDIDE; listed as Homo sapiens)
E. coli DH5α
  MIC: 50 µg/mL
E. coli BL21; [2]
  MIC against E. coli BL21: 12.5 µg/mL
Pseudomonas aeruginosa; [2]
  MIC against P. aeruginosa: 50 µg/mL
Klebsiella pneumonia; [2]
  MIC against K. pneumonia: 12.5 µg/mL
Enterobacter cloacae; [2]
  MIC against E. cloacae: 50 µg/mL
Aeromonas hydrophila; [2]
  MIC against A. hydrophila: 25 µg/mL
Citrobacter diversus; [2]
  MIC against C. diversus: 12.5 µg/mL
Moraxella catarrhalis; [2]
  MIC against M. catarrhalis: 25 µg/mL
Proteus mirabilis; [2]
  MIC against P. mirabilis: 50 µg/mL
Proteus vulgaris; [2]
  MIC against P. vulgaris: 12.5 µg/mL
Serratia marcescens; [2]
  MIC against S. marcescens: 50 µg/mL

## PRT1064 (INECLSRKLSGCSQDCEDLKIGFKCRCRPGFRLKDDGRTCA; listed as Homo sapiens)
E. coli DH5α
  MIC: 25 µg/mL
E. coli BL21; [1]
  MIC E. coli BL21: 50 µg/mL
Pseudomonas aeruginosa; [1]
  MIC P. aeruginosa: 25 µg/mL
Klebsiella pneumonia; [1]
  MIC K. pneumonia: 12.5 µg/mL
Enterobacter cloacae; [1]
  MIC E. cloacae: 50 µg/mL
Aeromonas hydrophila; [1]
  MIC A. hydrophila: 25 µg/mL
Citrobacter diversus; [1]
  MIC C. diversus: 12.5 µg/mL
Moraxella catarrhalis; [1]
  MIC M. catarrhalis: 25 µg/mL
Proteus mirabilis; [1]
  MIC P. mirabilis: 50 µg/mL
Proteus vulgaris; [1]
  MIC P. vulgaris: 25 µg/mL
Serratia marcescens; [1]
  MIC S. marcescens: 12.5 µg/mL

— patent US9833497B2, “Human originated EGF domain proteins and use of the same” (CHENGDU SOURCEBIO LIMITED-LIABILITY COMPANY, priority 2013, dated 2017)
